# Data taken from patent US11717508B2, “Compounds, compositions, and methods for inhibiting bacterial growth” (priority 2016, dated 2023).
# Several values for one entry are separate records, joined by “and”; a condition that tells them apart may be missing. Identical values can stand only once. Like-named read-outs stand apart in the source and are kept apart here.
# Tested on: DosRST regulon
# Assay type: cell-based
# Details: for Counts per million (CPM) WT_HC103A: replicates 1, 2
compound,measurement,setting,value
"O=C(Nc1cccc(O)c1)c1cccc(NC(=O)c2cccs2)c1 [HC103A, N-[3-[(3 hydroxyphenyl)carbamoyl]phenyl]thiophene-2-carboxamide]",WT DMSO/WT HC103A fold change,gene MT2019 (Rv1967),0.1846
same,log2 Fold change,gene MT2019 (Rv1967),−2.437
same,Counts per million (CPM) WT_HC103A,gene MT2019 Rv1967,58.15 CPM and 26.3 CPM
same,WT DMSO/WT HC103A fold change,gene MT2020 Rv1968,0.199
same,log2 Fold change,gene MT2020 Rv1968,−2.329
same,Counts per million (CPM) WT_HC103A,gene MT2020 Rv1968,72.37 CPM and 31.88 CPM
same,WT DMSO/WT HC103A fold change,gene MT2021 (Rv1969),0.2997
same,log2 Fold change,gene MT2021 (Rv1969),−1.738
same,Counts per million (CPM) WT_HC103A,gene MT2021 Rv1969,29.34 CPM and 13.9 CPM
same,WT DMSO/WT HC103A fold change,gene MT2022 (Rv1970 lprM),0.2084
same,log2 Fold change,gene MT2022 (Rv1970 lprM),−2.263
same,Counts per million (CPM) WT_HC103A,gene MT2022 Rv1970 lprM,41.74 CPM and 24.09 CPM
same,WT DMSO/WT HC103A fold change,gene MT2023 (Rv1971),0.2079
same,log2 Fold change,gene MT2023 (Rv1971),−2.266
same,Counts per million (CPM) WT_HC103A,gene MT2023 Rv1971,53.39 CPM and 33.31 CPM
same,WT DMSO/WT HC103A fold change,gene MT2024 (Rv1972),0.3791
same,log2 Fold change,gene MT2024 (Rv1972),−1.399
same,Counts per million (CPM) WT_HC103A,gene MT2024 Rv1972,12.78 CPM and 9.286 CPM
same,WT DMSO/WT HC103A fold change,gene MT2048 Rv1992c ctpG,0.2903
same,log2 Fold change,gene MT2048 Rv1992c ctpG,−1.784
same,Counts per million (CPM) WT_HC103A,gene MT2048 Rv1992c ctpG,531.4 CPM and 326.8 CPM
same,WT DMSO/WT HC103A fold change,gene MT2052 (Rv1996),0.003741
same,log2 Fold change,gene MT2052 (Rv1996),−8.063
same,Counts per million (CPM) WT_HC103A,gene MT2052 Rv1996,107.1 CPM and 83.44 CPM
same,WT DMSO/WT HC103A fold change,gene MT2053 (Rv1997 ctpF),0.0183
same,log2 Fold change,gene MT2053 (Rv1997 ctpF),−5.772
same,Counts per million (CPM) WT_HC103A,gene MT2053 Rv1997 ctpF,57.85 CPM and 33.12 CPM
same,WT DMSO/WT HC103A fold change,gene MT2059 (Rv2003c),0.1063
same,log2 Fold change,gene MT2059 (Rv2003c),−3.234
same,Counts per million (CPM) WT_HC103A,gene MT2059 Rv2003c,93.54 CPM and 62.92 CPM
same,WT DMSO/WT HC103A fold change,gene MT2060 Rv2004c,0.05469
same,log2 Fold change,gene MT2060 Rv2004c,−3.95
same,Counts per million (CPM) WT_HC103A,gene MT2060 Rv2004c,219.7 CPM and 144.4 CPM
same,WT DMSO/WT HC103A fold change,gene MT2061 Rv2005c,0.04809
same,log2 Fold change,gene MT2061 Rv2005c,−4.378
same,Counts per million (CPM) WT_HC103A,gene MT2061 Rv2005c,138.4 CPM and 91.76 CPM
same,WT DMSO/WT HC103A fold change,gene MT2062 Rv2006 otsB,0.1408
same,log2 Fold change,gene MT2062 Rv2006 otsB,−2.828
same,Counts per million (CPM) WT_HC103A,gene MT2062 Rv2006 otsB,107.5 CPM and 97.41 CPM
same,WT DMSO/WT HC103A fold change,gene MT2063 Rv2007c fdxA,0.08678
same,log2 Fold change,gene MT2063 Rv2007c fdxA,−4.765
same,Counts per million (CPM) WT_HC103A,gene MT2063 Rv2007c fdxA,527.8 CPM and 132.3 CPM
same,WT DMSO/WT HC103A fold change,gene MT2086 (Rv2027c),0.2521
same,log2 Fold change,gene MT2086 (Rv2027c),−1.988
same,Counts per million (CPM) WT_HC103A,gene MT2086 Rv2027c,73.2 CPM and 62.79 CPM
same,WT DMSO/WT HC103A fold change,gene MT2087 Rv2028c,0.02878
same,log2 Fold change,gene MT2087 Rv2028c,−5.119
same,Counts per million (CPM) WT_HC103A,gene MT2087 Rv2028c,35.92 CPM and 8.702 CPM
same,WT DMSO/WT HC103A fold change,gene MT2088,0.01366
same,log2 Fold change,gene MT2088,−6.194
same,Counts per million (CPM) WT_HC103A,gene MT2088,84.09 CPM and 21.3 CPM
same,WT DMSO/WT HC103A fold change,gene MT2089 Rv2030c,0.01775
same,log2 Fold change,gene MT2089 Rv2030c,−5.816
same,Counts per million (CPM) WT_HC103A,gene MT2089 Rv2030c,451.1 CPM and 80.39 CPM
same,WT DMSO/WT HC103A fold change,gene MT2090,0.0164
same,log2 Fold change,gene MT2090,−5.93
same,WT DMSO/WT HC103A fold change,gene MT2091 Rv2032,0.01154
same,log2 Fold change,gene MT2091 Rv2032,−6.438
same,WT DMSO/WT HC103A fold change,gene MT2445.1,0.4105
same,log2 Fold change,gene MT2445.1,−1.285
same,WT DMSO/WT HC103A fold change,gene MT2556 Rv2483c,0.3592
same,log2 Fold change,gene MT2556 Rv2483c,−1.477
same,WT DMSO/WT HC103A fold change,gene MT2557 Rv2484c,0.3196
same,log2 Fold change,gene MT2557 Rv2484c,−1.646
same,WT DMSO/WT HC103A fold change,gene MT2574 Rv2499c,0.3086
same,log2 Fold change,gene MT2574 Rv2499c,−1.696
same,WT DMSO/WT HC103A fold change,gene MT2576,0.2991
same,log2 Fold change,gene MT2576,−1.741
same,WT DMSO/WT HC103A fold change,gene MT2577 Rv2502c accD1,0.3334
same,log2 Fold change,gene MT2577 Rv2502c accD1,−1.585
same,WT DMSO/WT HC103A fold change,gene MT2578 Rv2503c scoB,0.2841
same,log2 Fold change,gene MT2578 Rv2503c scoB,−1.815
same,WT DMSO/WT HC103A fold change,gene MT2579 Rv2504c scoA,0.281
same,log2 Fold change,gene MT2579 Rv2504c scoA,−1.831
same,WT DMSO/WT HC103A fold change,gene MT2698 Rv2623,0.006998
same,log2 Fold change,gene MT2698 Rv2623,−7.159
same,WT DMSO/WT HC103A fold change,gene MT2699 Rv2624c,0.01316
same,log2 Fold change,gene MT2699 Rv2624c,−6.247
same,WT DMSO/WT HC103A fold change,gene MT2700 Rv2625c,0.007921
same,log2 Fold change,gene MT2700 Rv2625c,−6.98
same,WT DMSO/WT HC103A fold change,gene MT2701 Rv2626c,0.00844
same,log2 Fold change,gene MT2701 Rv2626c,−6.888
same,WT DMSO/WT HC103A fold change,gene MT2702 Rv2627c,0.005338
same,log2 Fold change,gene MT2702 Rv2627c,−7.55
same,WT DMSO/WT HC103A fold change,gene MT2703 Rv2678,0.02894
same,log2 Fold change,gene MT2703 Rv2678,−5.111
same,WT DMSO/WT HC103A fold change,gene MT2704 Rv2629,0.05675
same,log2 Fold change,gene MT2704 Rv2629,−4.139
same,WT DMSO/WT HC103A fold change,gene MT2705 Rv2630,0.07365
same,log2 Fold change,gene MT2705 Rv2630,3.763
same,WT DMSO/WT HC103A fold change,gene MT2707 Rv2631,0.07456
same,log2 Fold change,gene MT2707 Rv2631,−3.745
same,WT DMSO/WT HC103A fold change,gene MT3171 Rv3086 adhD,0.4045
same,log2 Fold change,gene MT3171 Rv3086 adhD,−1.306
same,WT DMSO/WT HC103A fold change,gene MT3210,0.0164
same,log2 Fold change,gene MT3210,−5.93
same,WT DMSO/WT HC103A fold change,gene MT3212 Rv3127,0.01248
same,log2 Fold change,gene MT3212 Rv3127,−6.324
same,WT DMSO/WT HC103A fold change,gene MT3216 Rv3130c,0.005779
same,log2 Fold change,gene MT3216 Rv3130c,−7.435
same,WT DMSO/WT HC103A fold change,gene MT3217 Rv3131,0.004749
same,log2 Fold change,gene MT3217 Rv3131,−7.718
same,WT DMSO/WT HC103A fold change,gene MT3218 Rv3132c,0.04611
same,log2 Fold change,gene MT3218 Rv3132c,−4.439
same,WT DMSO/WT HC103A fold change,gene MT3219 Rv3133c,0.0294
same,log2 Fold change,gene MT3219 Rv3133c,−5.088
same,WT DMSO/WT HC103A fold change,gene MT3220 Rv3134c,0.02054
same,log2 Fold change,gene MT3220 Rv3134c,−5.606
same,WT DMSO/WT HC103A fold change,gene MT3427,0.4435
same,log2 Fold change,gene MT3427,−1.173
same,WT DMSO/WT HC103A fold change,gene MT3443 Rv3340 metC,0.3114
same,log2 Fold change,gene MT3443 Rv3340 metC,−1.683
same,WT DMSO/WT HC103A fold change,gene MT3444 Rv3341 metA,0.2535
same,log2 Fold change,gene MT3444 Rv3341 metA,−1.924
same,WT DMSO/WT HC103A fold change,gene MT3608 Rv3504 fadE26,0.3558
same,log2 Fold change,gene MT3608 Rv3504 fadE26,−1.491
same,WT DMSO/WT HC103A fold change,gene MT3634 Rv3531c,0.2978
same,log2 Fold change,gene MT3634 Rv3531c,−1.748
same,WT DMSO/WT HC103A fold change,gene MT3656 Rv3552,0.3116
same,log2 Fold change,gene MT3656 Rv3552,−1.582
same,WT DMSO/WT HC103A fold change,gene MT3716 Rv3614c,0.3057
same,log2 Fold change,gene MT3716 Rv3614c,−1.71
same,WT DMSO/WT HC103A fold change,gene MT3717 Rv3615c,0.3122
same,log2 Fold change,gene MT3717 Rv3615c,−1.679
same,WT DMSO/WT HC103A fold change,gene MT3718 Rv3616c,0.3166
same,log2 Fold change,gene MT3718 Rv3616c,−1.659
